Laboratory results reported in patent publication US10807969B2, “Meglumine salt formulations of 1-(5,6-dichloro-1h-benzo[d]imidazol-2-yl)-1h-pyrazole-4-carboxylic acid” (Janssen Pharmaceutica NV, priority 2011, dated 2020).

Assay: Moisture uptake (adsorption/desorption vs relative humidity)
Type: physicochemical
Conditions: for Desorption (90-0% RH): moisture loss; for Adsorption (40-90% RH): moisture uptake
Text: The thermal properties, crystalline nature, apparent purity and moisture uptake of a 6.0 g batch of the free acid of compound (1) are summarized in Table 1.
Two broad endothermic peaks of the potassium salt of compound (1) were seen by DSC that can be associated with a dehydration event and melt/decomposition, respectively (Table 2).

| Desorption (90-0% RH) [%] | Adsorption (40-90% RH) | Hygroscopicity (salt prepared by re-slurry methodology) | SMILES |
| --- | --- | --- | --- |
| −0.96 | +0.59% |  | O=C(O)c1cnn(-c2nc3cc(Cl)c(Cl)cc3[nH]2)c1 [free acid of compound (1), 1-(5,6-Dichloro-1H-benzoimidazol-2-yl)-1H-pyrazole-4-carboxylic acid] |
| −0.89 | +0.53% | non-hygroscopic | O=C([O-])c1cnn(-c2nc3cc(Cl)c(Cl)cc3[nH]2)c1.[K+] [potassium salt of compound (1), potassium salt of 1-(5,6-dichloro-1H-benzoimidazol-2-yl)-1H-pyrazole-4-carboxylic acid] |
